From patent publication US20220370451A1, “INHIBITORS OF HUMAN IMMUNODEFICIENCY VIRUS REPLICATION” (VIIV HEALTHCARE UK ( No. 5) LIMITED, priority 2019, published 2022) come the findings set out here.

Structures are written as SMILES. Read-outs that look alike come from different tables or passages of the source.

Format in all cases: cell-based
A short description of data set [1]: Compound cytotoxicity, XTT-based colorimetric assay. Conditions: human; uninfected MT2 cells, day 4, XTT. How it is done: (§1) Compound cytotoxicity and the corresponding CC50 values were determined using the same protocol as described in the antiviral assay except that uninfected cells were used. Cytotoxicity was assessed on day 4 in uninfected MT2 cells by using a XTT (2,3-bis[2-Methoxy-4-nitro-5-sulfophenyl]-2H-tetrazolium-5-carboxyanilide inner salt)-based colorimetric assay (Sigma-Aldrich, St Louis, Mo.).
For orientation: Formazan colour is commonly taken as a measure of viable cells.

The subject of another data set is recombinant NL4-3 virus. The data set can be described thus: HIV cell culture assay (luciferase reporter antiviral activity). As to the method: HIV cell culture assay—MT=2 cells, 293T cells and the proviral DNA clone of NL4-3 virus were obtained from the NIH AIDS Research and Reference Reagent Program. MT=2 cells were propagated in RPMI 1640 media supplemented with 10% heat inactivated fetal bovine serum (FBS), […] penicillin G and up to 100 units/mL streptomycin. The 293T cells were propagated in DMEM media supplemented with 10% heat inactivated FBS, […] penicillin G and […] streptomycin. A recombinant NL4-3 proviral clone, in which a section of the nef gene was replaced with the Renilla luciferase gene, was used to make the reference virus used in these studies. The recombinant virus was prepared through transfection of the recombinant NL4-3 proviral clone into 293T cells using Transit-293 Transfection Reagent from Mirus Bio LLC (Madison, Wis.). Supernatent was harvested after 2-3 days and the amount of virus present was titered in MT=2 cells using luciferase enzyme activity as a marker by measuring luciferase enzyme activity. Luciferase was quantitated using the EnduRen Live Cell Substrate from Promega (Madison, Wis.). Antiviral activities of compounds toward the recombinant virus were quantified by measuring luciferase activity in MT=2 cells infected for 4-5 days with the recombinant virus in the presence of serial dilutions of the compound.
The 50% effective concentration (EC50) was calculated by using the exponential form of the median effect equation where (Fa)=1/[1+(ED50/drug conc.)m] (Johnson V A, Byington RT. Infectivity Assay. In Techniques in HIV Research. ed. Aldovini A, Walker B D. 71-76. New York: Stockton Press.1990). The 50% inhibitory concentration (EC50) was calculated by using the exponential form of the median effect equation where percent inhibition=1/[1+(EC50/drug concentration)m], where m is a parameter that reflects the slope of the concentration-response curve.
A general note: A reporter such as luciferase makes a cellular process visible.

Another data set concerns uninfected MT2 cells. The data set can be described thus: Compound cytotoxicity, XTT-based colorimetric assay. As to the method: as §1
Setting [2] is: Human immunodeficiency virus 1, NL43, MT2.

Broadly, the CC50 is the concentration at which the toxic effect on the cells reaches its halfway point. Broadly, the EC50 is the concentration giving half of the maximal effect. `O=C(Cn1nc(C(F)F)cc1C1CC1)N[C@@H](Cc1cc(F)cc(F)c1)c1nc2cc(-c3ccccn3)ccc2c(=O)n1-c1ccc(Cl)c2c(NS(=O)(=O)C3CC3)nn(CC(F)F)c12` (atropisomer, axis not shown; (P)) [Example 33, (S)-N-(1-((3P)-3-(4-chloro-3-(cyclopropanesulfonamido)-1-(2,2-difluoroethyl)-1H-indazol-7-yl)-4-oxo-7-(pyridin-2-yl)-3,4-dihydroquinazolin-2-yl)-2-(3,5-difluorophenyl)ethyl)-2-(5-cyclopropyl-3-(difluoromethyl)-1H-pyrazol-1-yl)acetamide] yielded a CC50 at 4 days in data set [1] of over 500 nM. Besides, the EC50 with recombinant NL4-3 virus (setting [2]) worked out at 0.79 nM.

For the molecule `O=C(Cn1nc(C(F)F)cc1C1CC1)N[C@@H](Cc1cc(F)cc(F)c1)c1nc2cc(-c3ncccn3)ccc2c(=O)n1-c1ccc(Cl)c2c(NS(=O)(=O)C3CC3)nn(CC(F)F)c12` (atropisomer, axis not shown; (P)) [Example 34, (S)-N-(1-((3P)-3-(4-chloro-3-(cyclopropanesulfonamido)-1-(2,2-difluoroethyl)-1H-indazol-7-yl)-4-oxo-7-(pyrimidin-2-yl)-3,4-dihydroquinazolin-2-yl)-2-(3,5-difluorophenyl)ethyl)-2-(5-cyclopropyl-3-(difluoromethyl)-1H-pyrazol-1-yl)acetamide], the CC50 at 4 days in data set [1] was over 500 nM. Besides, the EC50 in the data set with recombinant NL4-3 virus (setting [2]) came out at 0.4 nM.

`Cc1nccnc1-c1ccc2c(=O)n(-c3ccc(Cl)c4c(NS(=O)(=O)C5CC5)nn(CC(F)F)c34)c([C@H](Cc3cc(F)cc(F)c3)NC(=O)Cn3nc(C(F)F)cc3C3CC3)nc2c1` (atropisomer, axis not shown; (P)) [Example 35, (S)-N-(1-((3P)-3-(4-chloro-3-(cyclopropanesulfonamido)-1-(2,2-difluoroethyl)-1H-indazol-7-yl)-7-(3-methylpyrazin-2-yl)-4-oxo-3,4-dihydroquinazolin-2-yl)-2-(3,5-difluorophenyl)ethyl)-2-(5-cyclopropyl-3-(difluoromethyl)-1H-pyrazol-1-yl)acetamide] registered a 50% cytotoxic concentration (CC50) at 4 days in data set [1] of over 500 nM. For the same molecule, in the data set on recombinant NL4-3 virus (setting [2]), the EC50 was 0.36 nM.

Regarding `Cc1cc(F)ccc1-c1ccc2c(=O)n(-c3ccc(C)c4c(NS(C)(=O)=O)nn(C)c34)c([C@H](Cc3cc(F)cc(F)c3)NC(=O)Cn3nc(C(F)F)c4c3C(F)(F)[C@@H]3C[C@H]43)nc2c1` (atropisomer, axis not shown; (aR)) [Example 31, 2-((3bS,4aR)-3-(difluoromethyl)-5,5-difluoro-3b,4,4a,5-tetrahydro-1H-cyclopropa[3,4]cyclopenta[1,2-c]pyrazol-1-yl)-N-((S)-2-(3,5-difluorophenyl)-1-(3-(1,4-dimethyl-3-(methylsulfonamido)-1H-indazol-7-yl)-(3P)-7-(4-fluoro-2-methylphenyl)-4-oxo-3,4-dihydroquinazolin-2-yl)ethyl)acetamide], the CC50 at 4 days in data set [1] was over 500 nM. The half-maximal effective concentration (EC50) in the data set on recombinant NL4-3 virus (setting [2]) was found to be 2.3 nM.

As to `Cc1nccnc1-c1ccc2c(=O)n(-c3ccc(C)c4c(NS(C)(=O)=O)nn(C)c34)c(C(Cc3cc(F)cc(F)c3)NC(=O)Cn3nc(C(F)F)c4c3C(F)(F)[C@@H]3C[C@H]43)nc2c1` (stereo partly drawn) [Example 6, 2-((3bS,4aR)-3-(difluoromethyl)-5,5-difluoro-3b,4,4a,5-tetrahydro-1H-cyclopropa[3,4]cyclopenta[1,2-c]pyrazol-1-yl)-N-((S)-2-(3,5-difluorophenyl)-1-(3-(1,4-dimethyl-3-(methylsulfonamido)-1H-indazol-7-yl)-(3P)-7-(3-methylpyrazin-2-yl)-4-oxo-3,4-dihydroquinazolin-2-yl)ethyl)acetamide], the 50% cytotoxic concentration (CC50) at 4 days in data set [1] is over 500 nM. Moreover, the EC50 with recombinant NL4-3 virus (setting [2]) was 0.056 nM.

On to `Cc1nccnc1-c1ccc2c(=O)n(-c3ccc(Cl)c4c(NS(C)(=O)=O)nn(C)c34)c([C@H](Cc3cc(F)cc(F)c3)NC(=O)Cc3cn(C(C)C)c4ccccc34)nc2c1` [Example 8, (S)-N-(1-((3P)-3-(4-chloro-1-methyl-3-(methylsulfonamido)-1H-indazol-7-yl)-7-(3-methylpyrazin-2-yl)-4-oxo-3,4-dihydroquinazolin-2-yl)-2-(3,5-difluorophenyl)ethyl)-2-(1-isopropyl-1H-indol-3-yl)acetamide], for which, in the data set on uninfected MT2 cells, the CC50 is over 500 nM. Besides, the EC50 with recombinant NL4-3 virus (MT-2 cells infected for 4-5 days with recombinant NL4-3 Renilla luciferase virus, read-out: EC50) was found to be 0.45 nM.

For the molecule `Cn1nc(NS(C)(=O)=O)c2c(Cl)ccc(-n3c([C@H](Cc4cc(F)cc(F)c4)NC(=O)Cn4ccc5ccccc54)nc4cc(-c5ccccc5F)ccc4c3=O)c21` [Example 30, (S)-N-(1-((3P)-3-(4-chloro-1-methyl-3-(methylsulfonamido)-1H-indazol-7-yl)-7-(2-fluorophenyl)-4-oxo-3,4-dihydroquinazolin-2-yl)-2-(3,5-difluorophenyl)ethyl)-2-(1H-indol-1-yl)acetamide], the CC50 at 4 days in data set [1] is over 500 nM. Moreover, the EC50 with recombinant NL4-3 virus (setting [2]) is 3 nM.
